From ChEMBL document CHEMBL1122802, “Pyrido[3',2':4,5]thieno[3,2-d]-N-triazines: a new series of orally active antiallergic agents” (J Med Chem, 1984)

Legend:
[1] = organism: Rattus norvegicus; test: Effective dose required for inhibition of passive cutaneous anaphylaxis (PCA) in the rat at multiple dose levels; format: functional
[2] = organism: Rattus norvegicus; test: Evaluated on antigen induced release of histamine (AIR) in vitro from rat peritoneal mast cells (RMC) at multiple dose levels; format: functional, cell-based; conditions: Mast cell, read-out: I 50
[3] = system: Rattus norvegicus; test: Inhibition of passive cutaneous anaphylaxis (PCA) in the rat at 25 mg /kg.(orally); format: functional; conditions: po
[4] = system: Rattus norvegicus; test: Percent inhibition of antigen induced release of histamine (AIR) in vitro from rat peritoneal mast cells (RMC) […].; format: functional
[5] = system: Rattus norvegicus; test: Percent inhibition of antigen induced release of histamine (AIR) in vitro from rat peritoneal mast cells (RMC) […]; format: functional
[6] = system: Rattus norvegicus; test: Inhibition of passive cutaneous anaphylaxis (PCA) in the rat at 30 mg /kg.(orally); format: functional; conditions: po

Compound	ED50 [1] [mg/kg]	IC50 [2] [µM]	inhibition in vivo at 25 mg/kg [3] [%]	I [4] [%]	I [5] [%]	inhibition in vivo at 30 mg/kg [6] [%]
Cc1cc(C)c2c(n1)sc1c(O)nnnc12	3.6	80	70	–	–	–
COC(=O)NNc1nnnc2c1sc1nc(C)ccc12	–	–	5	21	–	–
CSc1nnnc2c1sc1nc(C)ccc12	–	–	–	–	4	–
Cc1ccc2c(n1)sc1c(O)nnnc12	5.2	0.25	88	–	–	–
Cc1ccc2c(n1)sc1cnnnc12	1.5	29	93	–	–	–
Oc1nnnc2c1sc1nc(-c3ccccc3)ccc12	3	0.05	–	–	–	68
Cc1ccc2c(n1)sc1c(N)nnnc12	–	1.7	38	–	–	–
CNc1nnnc2c1sc1nc(C)ccc12	–	11	32	–	–	–
CCOc1nnnc2c1sc1nc(C)ccc12	27	–	52	–	18	–
CCOCOc1nnnc2c1sc1nc(C)ccc12	–	6	22	–	–	–
Cc1ccc2c(n1)sc1c(S)nnnc12	–	0.1	–	–	–	–
